From US11685726B2, “Pharmaceutical compositions of 6-(2-(2H-tetrazol-5-yl)ethyl)-6-fluorodecahydroisoquinoline-3-carboxylic acid and ester derivatives thereof” (Sea Pharmaceuticals LLC, priority 2020, dated 2023) come the findings set out here.

A short description of series [1]: Irwin neurological test battery in rats (SAD and MAD studies). Type of series: in vivo, rat. How it is done: Rats were subjected to the Irwin Test Procedure of in vivo assessment of test compounds effects on neurological functions in rodents which was modified for rats. Rats were acclimated to the procedure room for at least 30 minutes. Rats were assessed for the features described below. Each rat was scored on a 0 to 3 scale with 0 representing the response in a normal animal and 3 representing a maximally impaired animal. Note that it is normal for an animal to score within the 0 to 1 range during Irwin testing. Animals were tested 55-60 min after test compound administration. Reference: Irwin, S. 20 Sep. 1968; “Comprehensive observational assessment: la. A symptomatic quantitative procedure for assessing the behavioral and physiologic state of the mouse” Psychopharmacologia 13(3): 222-257.
Single Ascending Dose (SAD) 1-day acute administration of test compound 2 by the oral PO route of administration to rats and samples collected at the timepoints described for subsequent extraction, dissolution and quantitative LCMS bioanalysis. […]
Multiple Ascending Dose (MAD) 5-day once daily administration of test compounds was done to rats and samples collected at the timepoints described for subsequent extraction, dissolution and quantitative LCMS bioanalysis. […]

The subject of a further series is NMDA receptor. Description: Whole cell patch-clamp recording of NMDA induced currents in pyramidal neurons of rat brain prefrontal cortex slices. It counts as cell-based. The settings on record: Tested at 30 pM (so in the source); 50 μM NMDA; rat brain cortex slices. How it is done: Additionally biological activity of compounds as antagonists of AMPA receptors or NMDA receptors (also called ionotropic glutamate-gated ion channels) were conducted using ex vivo functional electrophysiological assays of pyramidal neurons in slices of rat brain prefrontal cortex. Effects of test compounds cf. reference compounds were studied by whole cell patch-clamp electrophysiology recordings of s-AMPA-induced currents or NMDA-induced currents, respectively, using rat brain slice prefrontal cortex (layer V) pyramidal neurons.
Male Sprague Dawley rats were supplied by Charles River Laboratories (Wilmington, Mass. USA) and were housed 4 per cage within a temperature (20.5-23.5° C.) and humidity (30-80%) controlled environment on a 12 hour light/dark cycle with access to food (Teklad Global Soy Protein, Cat. No. T.2920X10, Envigo, Indianapolis, Ind., USA) and water ad libitum. […]
All test compound experiments were carried out in the voltage-clamp recording configuration of the whole cell patch-clamp technique and all recordings performed at a holding potential of −60 mV. Recordings were monitored on a Dell personal computer (PC) running Axon pClamp software (Molecular Devices, Sunnyvale, Calif., USA) and digitized at 10 kHz. […]
(The patch-clamp technique gives a direct electrical read-out from membranes.)

Regarding `O=C(O)[C@@H]1C[C@H]2CC(F)(CCc3nnn[nH]3)CC[C@H]2CN1` (stereo in doubt) [Compound 2, (3S,4aS,6R,8aR)-6-fluoro-6-[2-(1H-1,2,3,4-tetrazol-5-yl)ethyl]-decahydroisoquinoline-3-carboxylic acid], the “Irwin test observations, SAD study” value in series [1] (oral 10-200 mg/kg, day 1, 55-60 minutes post treatment) is listed as “Normal or very little change from normal was observed for many of the doses”. Moreover, the “Irwin test observations, MAD study” value in series [1] (oral once daily 5 days, day 3 and day 5, 55-60 minutes post treatment) was “Normal or very little change from normal was observed for many of the doses”.
As to `O=C(O)[C@@H]1C[C@H]2C[C@@](F)(CCc3nnn[nH]3)CC[C@H]2CN1` [Compound 1, (3S,4aS,6S,8aR)-6-fluoro-6-[2-(1H-1,2,3,4-tetrazol-5-yl)ethyl]-decahydroisoquinoline-3-carboxylic acid], the “% inhibition +/- SEM of NMDA induced currents in neurons” value in the series on NMDA receptor is recorded as 61.0 ± 6.3 (n = 3) %.
